Where two headings read alike, the source gives them in different places. Non-standard residues stand in square brackets, D forms with d. No end group written: not given here. pGlu = O=C1CC[C@@H](C(=O)O)N1
Columns and labels:
[1] = system: M1 muscarinic receptor and B2 bradykinin receptor; settings: ref [15]; cited from earlier work
HEK293 cells = settings: chemiluminescence assay, ref [15],[17]; cited from earlier work
Text: It is essentially non-fluorescent until it reacts with NO to form a highly fluorescent benzotriazole. ...

[2] = cited from earlier work
rat aorta = settings: cited from earlier work
Text: […]. NO is an important endothelium-derived vasodilator and is pivotal in several biological processes. The increase in NO production plays a pivotal role in the cardiovascular effects of BPPs.

[3] = system: argininosuccinate syntethase enzyme (AsS); settings: followed by increased L-arginine levels and formation of NO; ref [14]; cited from earlier work
human hypertension = settings: parenteral administration, in contrast to oral administration; ref [10]; cited from earlier work
Text: The Bj-BPP-5a was the first BPP for which the amino acid sequence was described. Bj-BPP-5a is present in hydroalcoholic extracts of the snake venom Bothrops jararaca. […] Captopril was the fir ...

rat thoracic aorta = assay: tissue or blood; set-up: species or system rat (male Wistar)
Protocol: Male Wistar rats (250 ± 30 g) were maintained under controlled temperature (22 ± 1 ≡C), 12/12 h light/dark cycle, and had free access to water and food (Purina-Nestlé, São Paulo, SP, Brazil). Rat thoracic aortic rings were prepared according to Silva-Filho and colleagues. Briefly, aortic rings (3–4 mm) were maintained in Krebs solution (in mM: NaCl, 118.0; KCl, 4.6; CaCl2.2H2O, 2.5; MgSO4.7H2O, 5.7; NaHCO3, 25.0; KH2PO4.H2O, 1.1; and D-glucose, 11.0) under isometric tension of 1.0 g, 37°C and bubbled with 5% CO2 in 95% O2. […]. Time control contractions induced by PE, but without adding drug were obtained in parallel with other vascular segments.
The IC50 values for the ACE activity and the pD2 values for the vasodilator curves were obtained by non-linear regression. All values were expressed as means ± SEM, and significances for compared values were analyzed by Student’s “t” test or One-way ANOVA followed by Bonferroni’s post-test. All procedures were performed using Graph Pad Prism 5.02™ (Graph Pad Software, Inc., San Diego, CA, USA).

M3 muscarinic receptors = settings: ref [17]; cited from earlier work
VSMCs = settings: rat aortic VSMCs; 10^−12 to 10^−5 M, 24 hours, MTT 4 hours, n = 3
HUVECs = settings: 10^−12 to 10^−5 M, 24 hours, MTT 4 hours, n = 3
ACE = molecular target: T1, ACE (Rattus norvegicus, UniProt P47820); assay: biochemical; set-up: species or system rat (Wistar rat serum); settings: rat serum ACE; 1.0 mM hippuryl-His-Leu-OH, 20 mM Tris-HCl pH 8.1, 0.3 M NaCl, 37°C, 30 min, duplicate; inhibitor 0.05 to 50 μM; non-linear regression; read-out: IC50, ACE inhibition
T1 construct: 20 μL of enzyme-containing serum; from tissue; host or cells: fresh Wistar rat serum
T1 sequence (P47820 36-1313): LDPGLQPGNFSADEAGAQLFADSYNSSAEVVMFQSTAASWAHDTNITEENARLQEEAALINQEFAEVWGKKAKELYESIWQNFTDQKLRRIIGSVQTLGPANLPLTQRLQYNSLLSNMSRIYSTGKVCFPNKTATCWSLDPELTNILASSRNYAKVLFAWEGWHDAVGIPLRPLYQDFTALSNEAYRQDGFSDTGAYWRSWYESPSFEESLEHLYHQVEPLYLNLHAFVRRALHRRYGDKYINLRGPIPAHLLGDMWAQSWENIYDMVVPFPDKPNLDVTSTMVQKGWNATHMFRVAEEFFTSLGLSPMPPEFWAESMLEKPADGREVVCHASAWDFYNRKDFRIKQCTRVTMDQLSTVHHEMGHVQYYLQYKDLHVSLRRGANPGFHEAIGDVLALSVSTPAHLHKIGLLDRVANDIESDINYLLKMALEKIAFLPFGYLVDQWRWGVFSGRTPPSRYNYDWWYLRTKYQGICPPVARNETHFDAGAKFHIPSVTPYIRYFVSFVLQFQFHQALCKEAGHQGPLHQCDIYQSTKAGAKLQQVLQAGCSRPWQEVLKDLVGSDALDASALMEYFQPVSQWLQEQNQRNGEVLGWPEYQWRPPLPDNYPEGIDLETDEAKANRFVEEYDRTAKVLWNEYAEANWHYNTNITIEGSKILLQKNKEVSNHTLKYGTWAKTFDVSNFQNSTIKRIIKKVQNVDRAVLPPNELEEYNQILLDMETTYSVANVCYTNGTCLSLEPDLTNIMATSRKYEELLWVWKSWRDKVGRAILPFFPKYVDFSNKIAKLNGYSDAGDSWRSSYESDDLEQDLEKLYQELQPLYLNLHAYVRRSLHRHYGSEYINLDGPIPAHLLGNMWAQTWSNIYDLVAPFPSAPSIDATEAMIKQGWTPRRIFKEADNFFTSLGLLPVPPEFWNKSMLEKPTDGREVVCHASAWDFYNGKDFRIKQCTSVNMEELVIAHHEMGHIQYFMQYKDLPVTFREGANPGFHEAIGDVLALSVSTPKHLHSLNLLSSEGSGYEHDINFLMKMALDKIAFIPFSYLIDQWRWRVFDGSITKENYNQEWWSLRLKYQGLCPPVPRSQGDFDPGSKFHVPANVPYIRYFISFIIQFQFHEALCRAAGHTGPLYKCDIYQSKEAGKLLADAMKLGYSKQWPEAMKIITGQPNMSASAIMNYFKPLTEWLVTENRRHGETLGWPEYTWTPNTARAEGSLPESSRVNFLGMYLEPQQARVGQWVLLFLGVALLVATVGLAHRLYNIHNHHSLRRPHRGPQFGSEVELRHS
Protocol: Fresh Wistar rat serum was used as source of ACE in these reactions, and the product H-His-Leu-OH was measured fluorimetrically following derivatization with o-phtaldialdehyde, as described [24, 25]. Reactions were carried out, in duplicate, at 37°C for 30 min in 200 μL of 20 mM Tris-HCl buffer, pH 8.1, 0.3 M NaCl, 1.0 mM H-hippuryl-His-Leu-OH, 20 μL of enzyme-containing serum and different inhibitor concentrations as described above.

## <EKWAP [Bj-BPP-5a]
[1]
  receptors on which increment of NO production depends: depends on M1 muscarinic receptor and B2 bradykinin receptor activation
HEK293 cells
  NO release: increase NO release
[2]; NO dependence, ref [16]
  antihypertensive effect: NO-dependent anti-hypertensive effect
Rat aorta; in vitro and in vivo, ref [45] (TsHpt-I), [16] and [15] (Bj-BPP-5a)
  vasodilatory effects: vasodilatory effects
Rat aorta; rat aorta, ref [16],[45]
  endothelium-dependent relaxation: endothelium-dependent relaxations sensitive to eNOS inhibition

## <ENWPHPQIPP ([pGlu]NWPHPQIPP) [Bj-BPP-10c]
[2]; result in words, ref [13]
  antihypertensive effect: ACE-independent antihypertensive effect
[3]
  argininosuccinate syntethase (AsS) activation: activation of the argininosuccinate syntethase enzyme (AsS)

## <EWPRPQIPP (N-terminal pyroglutamate) [Bj-BPP-9a]
Human hypertension
  benefit in treatment of human hypertension: showed benefits

## C[C@H](CS)C(=O)N1CCC[C@H]1C(=O)O [captopril]
Rat thoracic aorta; Rattus norvegicus, endothelium intact (E+), phenylephrine 3 × 10^−7 M, 10^−9–3 × 10^−5 M cumulative, Krebs 37°C, means ± SEM, n = 6, read-out: Emax (relaxation)
  Emax: 32.1 ± 4.2%
Rat thoracic aorta; endothelium dependence
  vasodilatation (result in words): endothelium-dependent vasodilatation
Rat thoracic aorta; result in words
  vasodilatation, captopril and BPP-BrachyNH2 compared: equipotent and of the same magnitude

## <EGGWPRPGPEIPP ([pGlu]GGWPRPGPEIPP) [Bj-BPP-13a]
M3 muscarinic receptors
  receptors to which increase of NO production is related: related to the M3 muscarinic receptors activation

## WPPPKVSP-NH2 [BPP-BrachyNH2]
VSMCs
  cell viability / cytotoxicity: No cytotoxic effects were observed
HUVECs
  cell viability / cytotoxicity: No cytotoxic effects were observed
ACE
  IC50: 8.2 µM
Rat thoracic aorta; after wash and 30 min stabilization, new PE contraction, data not shown
  reversibility / lethality to vascular cells: reversible and non-lethal to vascular cells

Reference: PMC4682775, “A Novel Vasoactive Proline-Rich Oligopeptide from the Skin Secretion of the Frog Brachycephalus ephippium” (PLoS ONE, 2015)
